{"source": "patent EP1082319B1", "about": "“BENZOCARBAZOLE AND INDENOINDOLE DERIVED ESTROGENIC AGENTS” (Wyeth, priority 1998, dated 1999)", "key": {"estrogen receptor": {"target": "T1, estrogen receptor (Homo sapiens, UniProt P03372)", "T1 construct": "expressed in transfected cells; host or cells: CHO cells (ribosome-free cytosol)", "T1 sequence (P03372 1-595)": "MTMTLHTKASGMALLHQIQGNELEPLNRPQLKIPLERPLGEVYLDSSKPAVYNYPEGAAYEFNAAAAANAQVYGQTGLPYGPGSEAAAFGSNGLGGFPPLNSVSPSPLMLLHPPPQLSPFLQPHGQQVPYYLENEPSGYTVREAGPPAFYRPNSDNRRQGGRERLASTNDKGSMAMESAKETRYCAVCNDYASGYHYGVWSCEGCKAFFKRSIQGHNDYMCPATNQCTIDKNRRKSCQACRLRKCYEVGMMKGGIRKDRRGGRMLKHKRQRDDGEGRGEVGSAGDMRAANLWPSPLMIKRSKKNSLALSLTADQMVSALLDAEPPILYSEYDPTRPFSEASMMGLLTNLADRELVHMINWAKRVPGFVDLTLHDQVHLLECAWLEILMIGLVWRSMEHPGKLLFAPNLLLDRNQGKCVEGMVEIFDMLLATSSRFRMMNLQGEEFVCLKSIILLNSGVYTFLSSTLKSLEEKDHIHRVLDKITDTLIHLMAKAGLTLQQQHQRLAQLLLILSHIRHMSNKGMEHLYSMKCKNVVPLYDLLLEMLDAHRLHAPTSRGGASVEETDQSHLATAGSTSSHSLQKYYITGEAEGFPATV", "assay": "In vitro estrogen receptor binding assay (competition with [3H]-17β-estradiol, cytosol of CHO cells overexpressing the receptor)", "settings": "for binding to the ER receptor, comparison in words: compared with the indenoindole Example 4, from Table 2; for IC50: read-out: Receptor Binding IC50's", "experimental": "The plates were washed twice with PBS and once with 10 mM Tris-HCl, pH 7.4, 1 mM EDTA. Cells were harvested by scraping the surface and then the cell suspension was placed on ice. Cells were disrupted with a hand-held motorized tissue grinder using two, 10-second bursts. The crude preparation was centrifuged at 12,000g for 20 minutes followed by a 60 minute spin at 100,000g to produce a ribosome free cytosol. The cytosol was then frozen and stored at -80°C. Protein concentration of the cytosol was estimated using the BCA assay with reference standard protein. […] The plate was incubated at room temperature for 2.5 h. At the end of this incubation period 150 uL of ice-cold dextran coated charcoal (5% activated charcoal coated with 0.05% […] dextran) was added to each well and the plate was immediately centrifuged at 99g for 5 minutes at 4°C. 200 uL of the supernatant solution was then removed for scintillation counting. […] Also, wells containing radioactivity but no cytosol were processed with charcoal to estimate unremovable DPM of [^3H] 17β-estradiol. Counts per minute (CPM) of radioactivity were automatically converted to disintegrated per minute (DPM) by the Beckman LS 7500 Scintillation Counter using a set of quenched standards to generate a H# for each sample. […]"}, "human estrogen receptor": {"target": "T2, human estrogen receptor (Homo sapiens, UniProt P03372)", "T2 construct": "expressed in transfected cells", "assay": "2X VIT ERE infection luciferase assay in CHO cells stably transfected with the human estrogen receptor", "format": "cell-based", "settings": "for Infection Luciferase Activity, 1 uM + 17β estradiol: 1 uM compound + 1 nM 17β-estradiol, 24 h (tests for estrogen antagonism), percentage of activity as compared to 17β-estradiol; for Infection Luciferase Activity, 1 uM: 1 uM compound alone, 24 h, percentage of activity as compared to 17β-estradiol (agonism)", "experimental": "Chinese Hamster Ovary cells (CHO) which had been stably transfected with the human estrogen receptor were maintained in DMEM + 10% fetal bovine serum (FBS). 48h prior to treatment the growth medium was replaced with DMEM lacking phenol red + 10% dextran coated charcoal stripped FBS (treatment medium). Cells were plated at a density of 5000 cells/well in 96-well plates containing 200 µL of medium/well.\nReporter DNA (Promega plasmid pGL2 containing two tandem copies of the vitellogenin ERE in front of the minimal thymidine kinase promoter driving the luciferase gene) was combined with the B-galactosidase expression plasmid pCH110 (Pharmacia) and carrier DNA (pTZ18U) in the following ratio: • 10uG of reporter DNA • 5uG of pCH110DNA • 5 uG of pTZ18U • 20 uG of DNA/1 mL of transfection solution\nThe DNA (20uG) was dissolved in 500 uL of 250 mM sterile CaCl2 and added dropwise to 500 uL of 2 X HeBS (0.28 M NaCl, 50 mM HEPES, 1.5 mM Na2HPO4, pH 7.05) and incubated at room temperature for 20 minutes. 20 uL of this mixture was added to each well of cells and remained on the cells for 16 h. […] Each treatment condition was performed on 8 wells (n=8) which were incubated for 24 h prior to the luciferase assay.\nAfter 24h exposure to compounds, the media was removed and each well washed 2X with 125 uL of PBS lacking Mg^++ and Ca^++. After removing the PBS, 25 uL of Promega lysis buffer was added to each well and allowed to stand at room temperature for 15 min, followed by 15 min at -80°C and 15 min at 37°C. 20 uL of lysate was transferred to an opaque 96 well plate for luciferase activity evaluation and the remaining lysate (5 uL) was used for the B-galactosidase activity evaluation (normalize transfection). The luciferan substrate (Promega) was added in 100 uL aliquots to each well automatically by the luminometer and the light produced (relative light units) was read 10 seconds after addition.\nTo the remaining 5 uL of lysate 45 uL of PBS was added. Then 50 uL of Promega B-galactosidase 2X assay buffer was added, mixed well and incubated at 37°C for 1 hour. A plate containing a standard curve (0.1 to 1.5 milliunits in triplicate) was set up for each experimental run. The plates were analyzed on a Molecular Devices spectrophotometric plate reader at 410 nm. The optical densities for the unknown were converted to milliunits of activity by mathematical extrapolation from the standard curve.\nThe luciferase data was generated as relative light units (RLUs) accumulated during a 10 second measurement and automatically transferred to a JMP (SAS Inc) file where background RLUs were subtracted. The B-galactosidase values were automatically imported into the file and these values were divided into the RLUs to normalize the data. The mean and standard deviations were determined from a n=8 for each treatment."}}}
{"smiles": "COc1ccc2c(c1)CCc1c-2n(Cc2ccc(OCCN3CCCCC3)cc2)c2ccc(O)cc12", "note": "[Example 13, 3-Methoxy-11-[4-(2-piperidin-1-yl-ethoxy)-benzyl]-5,11-dihydro-6H-benzo[a]carbazol-8-ol]", "values": [{"measurement": "binding to the ER receptor, comparison in words", "setting": "estrogen receptor", "result": "bind better to the ER receptor than the indenoindole Example 4"}, {"measurement": "IC50", "setting": "estrogen receptor", "result": 110, "unit": "nM"}, {"measurement": "Infection Luciferase Activity, 1 uM + 17β estradiol", "setting": "human estrogen receptor", "result": 1, "unit": "%"}, {"measurement": "Infection Luciferase Activity, 1 uM", "setting": "human estrogen receptor", "result": -7, "unit": "%"}]}
{"smiles": "COc1ccc2c(c1)Cc1c-2n(Cc2ccc(OCCN3CCCCC3)cc2)c2ccc(O)cc12", "note": "[Example 4, 2-Methoxy-5-[4-(2-piperidin-1-yl-ethoxy)-benzyl]-5,10-dihydro-indeno[1,2-b]indol-8ol]", "values": [{"measurement": "IC50", "setting": "estrogen receptor", "result": 430, "unit": "nM"}, {"measurement": "Infection Luciferase Activity, 1 uM + 17β estradiol", "setting": "human estrogen receptor", "result": 83, "unit": "%"}, {"measurement": "Infection Luciferase Activity, 1 uM", "setting": "human estrogen receptor", "result": -2, "unit": "%"}]}
{"smiles": "COc1ccc2c(c1)CCc1c-2n(Cc2ccc(OCCN3CCCCCC3)cc2)c2ccc(O)cc12", "note": "[Example 14]", "values": [{"measurement": "binding to the ER receptor, comparison in words", "setting": "estrogen receptor", "result": "bind better to the ER receptor than the indenoindole Example 4"}, {"measurement": "IC50", "setting": "estrogen receptor", "result": 190, "unit": "nM"}, {"measurement": "Infection Luciferase Activity, 1 uM + 17β estradiol", "setting": "human estrogen receptor", "result": 8, "unit": "%"}, {"measurement": "Infection Luciferase Activity, 1 uM", "setting": "human estrogen receptor", "result": 1, "unit": "%"}]}
